Experimental data published in PMC6995600, “Effects of Synergistic Inhibition on α-glucosidase by Phytoalexins in Soybeans” (Biomolecules, 2019).
Like-named read-outs stand apart in the source and are kept apart here.

Assays:
[1] = tested on: α-glucosidase; parameters: method as in PMID 24083955; conditions: 2 μM; cited from earlier work
[2] = molecular target: T1, α-Glucosidase (from baker’s yeast) (Saccharomyces cerevisiae, UniProt P53341); experiment: Enzyme kinetics for α-glucosidase (Michaelis–Menten, Lineweaver–Burk, Dixon plot); assay type: biochemical; conditions: for Mode of Inhibition: Lineweaver–Burk plots
T1 construct: purchased Sigma-Aldrich #63231-63-0
T1 sequence (P53341 whole entry): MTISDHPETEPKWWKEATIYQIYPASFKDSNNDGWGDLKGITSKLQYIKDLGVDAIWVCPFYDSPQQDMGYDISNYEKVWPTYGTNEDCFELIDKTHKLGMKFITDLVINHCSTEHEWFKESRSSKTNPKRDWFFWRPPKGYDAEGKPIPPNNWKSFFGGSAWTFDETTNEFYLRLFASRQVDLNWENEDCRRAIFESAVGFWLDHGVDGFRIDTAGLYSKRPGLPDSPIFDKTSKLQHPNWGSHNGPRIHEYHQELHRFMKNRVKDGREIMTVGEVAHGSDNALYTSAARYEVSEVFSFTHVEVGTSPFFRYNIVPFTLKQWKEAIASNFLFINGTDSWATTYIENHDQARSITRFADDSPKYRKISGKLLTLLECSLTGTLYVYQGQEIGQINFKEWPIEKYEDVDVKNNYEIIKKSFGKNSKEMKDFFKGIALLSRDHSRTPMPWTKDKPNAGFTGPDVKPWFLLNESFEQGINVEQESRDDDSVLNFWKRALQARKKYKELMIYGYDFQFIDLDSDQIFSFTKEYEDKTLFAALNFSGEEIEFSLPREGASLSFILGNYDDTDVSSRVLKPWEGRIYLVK
Method: The enzyme reaction was performed according to the above reaction conditions with polyphenols at various concentrations (1–30 μM). pNPG (1 mM) was added with polyphenols in 96-well plates, and α-glucosidase (1 U/mL) was added to initiate the enzyme reaction. The absorbances for each concentration of pNPG were then obtained by spectrophotometry (Victor3, PerkinElmer, Waltham, MA, USA). The inhibition modes of the polyphenols were determined using Michaelis–Menten and Lineweaver–Burk equations [23, 24]. The inhibition constant Ki is an indication of the potency of an inhibitor and equals the concentration required to produce half-maximal inhibition and can be determined by a Dixon plot. […] The αKi value is the inhibitor constant when the inhibitor (I) occupies the enzyme–substrate (ES) complex.
To define the mode of inhibition of the polyphenols, enzyme kinetics were performed with designated concentrations of pNPG. The maximum velocity (Vmax) for α-glucosidase was calculated from the nonlinear regression curve with five different concentrations of substrate (Figure 2). To determine the inhibition modes, Lineweaver–Burk plots were constructed for each of the inhibition modes, and the most suitable mode was selected using SigmaPlot 10.0 software.
Meanwhile, the inhibitor constant Ki indicates the potency of an inhibitor and is expressed as the concentration required to produce half-maximal inhibition and is determined by a Dixon plot. The initial slope v was determined for each concentration of each polyphenol. The reciprocal velocity (1/v) versus the […] (for 0.25, 0.5, 1, and 2 mM pNPG) was plotted. A single regression line for each concentration of the substrate was obtained, and Ki was calculated from the intersection of the four lines.

[3] = molecular target: T1, α-Glucosidase (from baker’s yeast); experiment: biochemical
Method: The activity of α-glucosidase was measured as described previously, with slight modifications. In brief, sodium phosphate buffer (0.1 M) was adjusted to 0.1 N HCl to pH 7.0 with a pH meter (Thermo Fisher Scientific Inc., Waltham, MA, USA). Solutions of pNPG (10 mM) and α-glucosidase (1 U/mL) were solubilized in 0.1 M sodium phosphate buffer (pH 7.0). All reagents were prepared shortly before use and warmed to 37 °C in a water bath (Il-shin Biobase, Pocheon, Korea). […] The substrate, pNPG (N1377, Sigma), was added into each well to a final concentration of 1 mM in a total volume of 200 μL, and 100 μL of α-glucosidase (1 U/mL) per well was then added. […] The absorbance values were plotted against time, and the rate (velocity) of product generation (α-glucosidase activity) was calculated from the linear range of the graph.

[4] = molecular target: T1, α-Glucosidase (from baker’s yeast); experiment: biochemical; remark: listed apart in the source
Method: Synergistic effects on α-glucosidase inhibition were measured using the same methods as above. […] We calculated the IC50 values of each polyphenol and the combinations, and we used the statistical differences of these values to assess synergistic effects.

[5] = pNPG 1 mM, pH 7.0, 37 °C, read-out: half-maximal inhibitory concentrations (IC50)
[6] = Substrate PNPG 0.125 mM, read-out: IC50
[7] = Substrate PNPG 0.25 mM, read-out: IC50
[8] = Substrate PNPG 0.5 mM, read-out: IC50
[9] = Substrate PNPG 1 mM, read-out: IC50

O=c1c2cc(O)ccc2oc2cc(O)cc(O)c12 [1,3,7-trihydroxyxanthone]
inhibition [1]: approximately 15%

C[C@H]1O[C@H](O[C@H]2[C@H](O)[C@@H](O)[C@@H](O[C@H]3[C@H](O)[C@@H](O)C(O)O[C@@H]3CO)O[C@@H]2CO)[C@H](O)[C@@H](O)[C@@H]1N[C@H]1C=C(CO)[C@@H](O)[C@H](O)[C@H]1O (some centres unmarked) [Acarbose, acarbose, reference compound]
Mode of Inhibition [2]: Competitive

O=c1c(-c2ccc(O)cc2)coc2cc(O)ccc12 [Daidzein, daidzein]
Mode of Inhibition [2]: Uncompetitive | IC50 [3]: 20.2 ± 6.17 µM | IC50 ([4]; IC50, Substrate PNPG 0.125 mM): 59.2 ± 6.1 µM | IC50 ([4]; IC50, Substrate PNPG 0.25 mM): 27.6 ± 2.93 µM | IC50 ([4]; IC50, Substrate PNPG 0.5 mM): 23.2 ± 1.04 µM | IC50 ([4]; IC50, Substrate PNPG 1 mM): 20.5 ± 1.82 µM

CC1(C)C=Cc2c(ccc3c2OC[C@@]2(O)c4ccc(O)cc4O[C@@H]32)O1 [Glyceollin, glyceollin]
Ki [2]: 19 ± 4.45 µM | Mode of Inhibition [2]: Competitive | Mode of Inhibition ([2]; listed as glyceollin): competitive inhibition | IC50 [3, 5]: 13.2 ± 2.31 µM | IC50 [4, 6]: 16.6 ± 3.25 µM | IC50 [4, 7]: 16.57 ± 0.15 µM | IC50 [4, 8]: 19.1 ± 0.96 µM | IC50 [4, 9]: 33.2 ± 3.97 µM

O=c1cc(-c2ccc(O)c(O)c2)oc2cc(O)cc(O)c12 [Luteolin, luteolin]
Ki [2]: 16.8 ± 9.6 µM | Mode of Inhibition [2]: Mixed | IC50 [3, 5]: 11.9 ± 1.63 µM | IC50 [4, 6]: 18.6 ± 1.2 µM | IC50 [4, 7]: 14.82 ± 0.01 µM | IC50 [4, 8]: 15.4 ± 1.99 µM | IC50 [4, 9]: 19.5 ± 1.59 µM
